Assay results from US20100035867A1 (priority 2006, published 2010).

What was measured:
rabbit intestinal loop = experiment: Liquid secretion induced by STa in a rabbit intestinal loop model; type: in vivo
Description: The test was performed by the method known in the art (Alcantara, C. S.; Jin, X. H.; Brito, G. A.; Carneiro-Filho, B. A.; Barrett, L. J.; Carey, R. M.; Guerrant, R. L., Angiotensin II subtype 1 receptor blockade inhibits Clostridium difficile toxin A-induced intestinal secretion in a rabbit model. J Infect Dis 2005, 191, (12), 2090-6). Volume of liquid in the loop was divided by the length of the loop and the normalized value was used to assess liquid accumulation in the intestinal lumen.

[1] = biological target: T1, guanylyl cyclase type A (GC-A) (Rattus norvegicus, UniProt P18910); experiment: ANP-induced cyclic GMP accumulation in RFL-6 fibroblast cells; conditions: RFL-6 cells, 1 μM ANP, 50 μM compound
T1 sequence (P18910 29-1057): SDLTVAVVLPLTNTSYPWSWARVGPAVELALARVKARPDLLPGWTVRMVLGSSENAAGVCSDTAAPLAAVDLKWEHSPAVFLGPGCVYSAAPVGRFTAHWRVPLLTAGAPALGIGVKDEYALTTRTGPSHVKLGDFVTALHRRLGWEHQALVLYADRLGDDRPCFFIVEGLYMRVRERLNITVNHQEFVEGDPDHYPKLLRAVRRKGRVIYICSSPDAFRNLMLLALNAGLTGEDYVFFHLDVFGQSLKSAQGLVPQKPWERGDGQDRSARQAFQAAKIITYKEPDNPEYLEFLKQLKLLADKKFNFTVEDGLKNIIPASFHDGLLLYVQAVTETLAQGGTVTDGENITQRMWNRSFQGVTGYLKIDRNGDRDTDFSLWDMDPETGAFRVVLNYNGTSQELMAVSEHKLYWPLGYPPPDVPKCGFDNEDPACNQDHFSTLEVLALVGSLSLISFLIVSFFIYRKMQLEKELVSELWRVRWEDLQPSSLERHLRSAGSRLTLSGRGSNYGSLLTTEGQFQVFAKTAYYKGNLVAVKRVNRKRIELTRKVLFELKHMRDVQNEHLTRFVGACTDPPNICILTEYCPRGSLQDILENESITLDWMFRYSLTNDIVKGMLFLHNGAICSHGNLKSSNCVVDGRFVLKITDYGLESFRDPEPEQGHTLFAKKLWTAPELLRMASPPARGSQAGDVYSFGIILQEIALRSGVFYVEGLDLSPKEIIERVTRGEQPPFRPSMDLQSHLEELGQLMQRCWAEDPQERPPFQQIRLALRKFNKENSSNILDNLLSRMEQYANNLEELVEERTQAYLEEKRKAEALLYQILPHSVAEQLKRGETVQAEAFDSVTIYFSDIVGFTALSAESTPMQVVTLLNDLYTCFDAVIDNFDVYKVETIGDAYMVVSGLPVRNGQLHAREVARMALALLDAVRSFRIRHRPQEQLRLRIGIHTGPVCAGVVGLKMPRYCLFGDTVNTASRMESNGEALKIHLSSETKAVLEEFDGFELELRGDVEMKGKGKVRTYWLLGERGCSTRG

[2] = biological target: guanylyl cyclase type C (GC-C) (Homo sapiens, UniProt P25092); experiment: Guanylin-induced activation of GC-C in T84 cells (cyclic GMP accumulation)
Chain of guanylyl cyclase type C (GC-C) (P25092 24-1073): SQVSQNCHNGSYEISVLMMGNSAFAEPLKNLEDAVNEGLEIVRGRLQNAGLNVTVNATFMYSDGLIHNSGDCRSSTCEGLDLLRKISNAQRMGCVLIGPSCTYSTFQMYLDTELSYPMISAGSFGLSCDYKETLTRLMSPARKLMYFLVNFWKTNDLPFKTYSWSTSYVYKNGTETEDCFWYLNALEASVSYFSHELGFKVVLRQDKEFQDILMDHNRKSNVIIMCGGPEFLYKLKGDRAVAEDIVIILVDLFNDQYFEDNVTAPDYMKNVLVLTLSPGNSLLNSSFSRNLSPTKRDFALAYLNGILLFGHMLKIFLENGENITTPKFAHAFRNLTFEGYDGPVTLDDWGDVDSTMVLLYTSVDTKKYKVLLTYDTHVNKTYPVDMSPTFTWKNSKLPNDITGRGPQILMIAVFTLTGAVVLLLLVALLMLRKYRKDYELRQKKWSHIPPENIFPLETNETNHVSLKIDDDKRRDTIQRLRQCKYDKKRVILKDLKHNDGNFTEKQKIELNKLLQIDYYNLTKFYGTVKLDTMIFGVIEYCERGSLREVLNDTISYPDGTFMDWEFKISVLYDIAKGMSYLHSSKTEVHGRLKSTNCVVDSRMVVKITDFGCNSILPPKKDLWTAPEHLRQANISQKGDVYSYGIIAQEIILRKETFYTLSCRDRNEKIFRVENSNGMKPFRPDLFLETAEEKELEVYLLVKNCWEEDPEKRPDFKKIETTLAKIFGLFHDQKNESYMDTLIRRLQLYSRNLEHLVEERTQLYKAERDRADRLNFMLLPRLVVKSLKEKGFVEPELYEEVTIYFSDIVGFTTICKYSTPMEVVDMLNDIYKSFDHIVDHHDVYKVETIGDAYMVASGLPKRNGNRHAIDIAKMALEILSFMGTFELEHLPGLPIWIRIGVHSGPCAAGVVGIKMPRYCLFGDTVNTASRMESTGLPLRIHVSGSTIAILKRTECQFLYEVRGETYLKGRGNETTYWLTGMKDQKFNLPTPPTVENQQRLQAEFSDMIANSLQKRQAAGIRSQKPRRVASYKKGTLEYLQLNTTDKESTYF

## Cn1c2c(c(=O)n(C)c1=O)C(c1cccc(Br)c1)C1=C(N2)c2ccccc2C1=O (stereo not drawn) [compound IIb]
Rabbit intestinal loop; rabbit loops injected with 100 nM STa and 50 μM compound, STa+vehicle 0.62±0.05, PBS 0.18±0.03
  liquid accumulation (volume per loop length): 0.15 ± 0.06 mL/cm
Rabbit intestinal loop; rabbit loops, 100 nM STa, 50 μM compound
  inhibition of STa-stimulated liquid accumulation: completely
[1]
  inhibition of cyclic GMP accumulation (FIG. 6): inhibition
[2]
  IC50: 7.2 µM
[2]; T84, read-out: inhibition of guanylin-induced cyclic GMP
  inhibition at 50 µM: 58.9%
[2]; T84 cells, 500 nM guanylin, 50 μM compound, vehicle 124±13
  level of cyclic GMP: 51±6 pmol/mg protein
